According to patent publication US20230144436A1, “MUSCLE TARGETING COMPLEXES AND USES THEREOF FOR TREATING MYOTONIC DYSTROPHY” (Dyne Therapeutics, Inc., priority 2020, published 2023):

Test system: DMPK
Assay: DMPK knockdown by transfected antisense oligonucleotides in DM1 C15 myotubes at 0.5 nM and 50 nM
Type: cell-based
Settings: 72 hours; for Normalized DMPK Remaining: relative to vehicle control = 1.00
Method in brief: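 DMPK remaining was measured by qPCR 72 h post-transfection, normalized to lipofectamine-only vehicle wells (=1.00). Oligonucleotides were delivered at 0.5 and 50 nM final to DM1 C15 myoblasts differentiated seven days into myotubes, in triplicate.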

[1] = 0.5 nM oligonucleotide, qPCR, relative to vehicle control
[2] = 50 nM oligonucleotide, qPCR, relative to vehicle control

| Substance | Percent DMPK Reduction [1] | Normalized DMPK Remaining (0.5 nM oligonucleotide, qPCR) | Percent DMPK Reduction [2] | Normalized DMPK Remaining (50 nM oligonucleotide, qPCR) | Percent DMPK Reduction (0.5 nM oligonucleotide) | Normalized DMPK Remaining (0.5 nM oligonucleotide) | Percent DMPK Reduction (50 nM oligonucleotide) | Normalized DMPK Remaining (50 nM oligonucleotide) |
| --- | --- | --- | --- | --- | --- | --- | --- | --- |
| 334 (CCAUGACAAUCUCCGCCAGG; chemistry not given here) [compound 334] | 34.53% | 0.65 | 76.46% | 0.24 |  |  |  |  |
| 319 (ACACCUGGCCCGUCUGCUUC; chemistry not given here) [compound 319] | 33.00% | 0.67 | 55.40% | 0.45 |  |  |  |  |
| 249 (AAACUUGCUCAGCAGUGUCA; chemistry not given here) [compound 249] | 30.85% | 0.69 | 50.69% | 0.49 |  |  |  |  |
| 387 (UCGAAGUUGCAUGUGUCGGU; chemistry not given here) [compound 387] |  |  |  |  | 22.96% | 0.77 | 58.15% | 0.42 |
| 458 (GUCGGCCAGGCGGAUGUGGC; chemistry not given here) [compound 458] |  |  |  |  | 15.35% | 0.85 | 74.59% | 0.25 |
| 380 (UGCCCAUAGAACAUUUCAUA; chemistry not given here) [compound 380] |  |  |  |  | 7.67% | 0.92 | 34.56% | 0.65 |
| 328 (CUUGCCAUAGGUCUCCGCCG; chemistry not given here) [compound 328] | 27.04% | 0.73 | 71.05% | 0.29 |  |  |  |  |
| 363 (CAUGACCAGGUACAGGUAGU; chemistry not given here) [compound 363] | 19.39% | 0.81 | 59.09% | 0.41 |  |  |  |  |
| 311 (CUCAGCCUCUGCCGCAGGGA; chemistry not given here) [compound 311] | 17.86% | 0.82 | 79.58% | 0.20 |  |  |  |  |
| 354 (AGACAAUAAAUACCGAGGAA; chemistry not given here) [compound 354] | 29.37% | 0.71 | 48.20% | 0.52 |  |  |  |  |
| 262 (UGUCGGGUUUGAUGUCCCUG; chemistry not given here) [compound 262] | 30.09% | 0.70 | 68.14% | 0.32 |  |  |  |  |
| 265 (GUCGGGUUUGAUGUCCCUGU; chemistry not given here) [compound 265] | 28.89% | 0.71 | 64.15% | 0.36 |  |  |  |  |
| 327 (CCCAAACUUGCUCAGCAGUG; chemistry not given here) [compound 327] | 37.02% | 0.63 | 61.78% | 0.38 |  |  |  |  |
| 269 (CUGUCCCGGAGACCAUCCCA; chemistry not given here) [compound 269] | 35.85% | 0.64 | 50.78% | 0.49 |  |  |  |  |
| 335 (UCCCCAAACUUGCUCAGCAG; chemistry not given here) [compound 335] | 5.73% | 0.94 | 44.67% | 0.55 |  |  |  |  |
| 284 (CACGUAAUACUCCAUGACCA; chemistry not given here) [compound 284] | 24.40% | 0.76 | 46.50% | 0.54 |  |  |  |  |
| 433 (GCGGAUGGCCUCCAUCUCCC; chemistry not given here) [compound 433] |  |  |  |  | 21.25% | 0.79 | 71.77% | 0.28 |
| 474 (AGUCGGCCAGGCGGAUGUGG; chemistry not given here) [compound 474] |  |  |  |  | 6.15% | 0.94 | 67.44% | 0.33 |
| 480 (AGGGAAAGCGCCUCCGAUAG; chemistry not given here) [compound 480] |  |  |  |  | -1.12% | 1.01 | 75.50% | 0.25 |
| 378 (GGAUGUUGUCGGGUUUGAUG; chemistry not given here) [compound 378] |  |  |  |  | 4.26% | 0.96 | 40.81% | 0.59 |

| Substance | Percent DMPK Reduction [1] | Normalized DMPK Remaining (0.5 nM oligonucleotide, qPCR) | Percent DMPK Reduction [2] | Normalized DMPK Remaining (50 nM oligonucleotide, qPCR) | Percent DMPK Reduction (0.5 nM oligonucleotide) | Normalized DMPK Remaining (0.5 nM oligonucleotide) | Percent DMPK Reduction (50 nM oligonucleotide) | Normalized DMPK Remaining (50 nM oligonucleotide) |
| --- | --- | --- | --- | --- | --- | --- | --- | --- |
| 325 (GGUAGUUCUCAUCCUGGAAG; chemistry not given here) [compound 325] | 25.48% | 0.75 | 56.15% | 0.44 |  |  |  |  |
| 398 (ACGUGUGCCUCUAGGUCCCG; chemistry not given here) [compound 398] |  |  |  |  | 16.47% | 0.84 | 77.73% | 0.22 |
| 377 (UUUCCCGAGUAAGCAGGCAG; chemistry not given here) [compound 377] |  |  |  |  | 20.69% | 0.79 | 44.89% | 0.55 |
| 451 (CAGGAUGUUGUCGGGUUUGA; chemistry not given here) [compound 451] |  |  |  |  | 17.17% | 0.83 | 79.31% | 0.21 |
| 285 (AUCUCGGCCGGAAUCCGCUC; chemistry not given here) [compound 285] | 11.61% | 0.88 | 65.98% | 0.34 |  |  |  |  |
| 447 (CAUCCAAAACGUGGAUUGGG; chemistry not given here) [compound 447] |  |  |  |  | 19.12% | 0.81 | 77.98% | 0.22 |
| 329 (UACACCUGGCCCGUCUGCUU; chemistry not given here) [compound 329] | 31.10% | 0.69 | 57.43% | 0.43 |  |  |  |  |
| 246 (GGACGGCCCGGCUUGCUGCC; chemistry not given here) [compound 246] | 58.25% | 0.42 | 69.30% | 0.31 |  |  |  |  |
| 415 (AGGGCCUUUUAUUCGCGAGG; chemistry not given here) [compound 415] |  |  |  |  | 13.63% | 0.86 | 66.43% | 0.34 |
| 337 (GUUUGCCCAUCCACGUCAGG; chemistry not given here) [compound 337] | 34.36% | 0.66 | 54.49% | 0.46 |  |  |  |  |
| 418 (GUAGUUGACUGGCGAAGUUC; chemistry not given here) [compound 418] |  |  |  |  | 7.50% | 0.93 | 45.33% | 0.55 |
| 388 (UGGAACACGGACGGCCCGGC; chemistry not given here) [compound 388] |  |  |  |  | -1.90% | 1.02 | 60.96% | 0.39 |
| 426 (CTGCAGUUUGCCCAUCCACG; chemistry not given here) [compound 426] |  |  |  |  | -10.69% | 1.11 | 60.08% | 0.40 |
| 347 (GCUCAGCAGUGUCAGCAGGU; chemistry not given here) [compound 347] | 29.18% | 0.71 | 73.46% | 0.27 |  |  |  |  |
| 400 (UGACCAGGUACAGGUAGUUC; chemistry not given here) [compound 400] |  |  |  |  | 22.00% | 0.78 | 63.73% | 0.36 |
| 403 (UCUCCGCCAGGUAGAAGCGC; chemistry not given here) [compound 403] |  |  |  |  | 19.59% | 0.80 | 66.52% | 0.33 |
| 256 (UCCGCCAGGUAGAAGCGCGC; chemistry not given here) [compound 256] | 27.99% | 0.72 | 80.06% | 0.20 |  |  |  |  |
| 419 (UGCGGAUGGCCUCCAUCUCC; chemistry not given here) [compound 419] |  |  |  |  | 40.15% | 0.60 | 84.43% | 0.16 |
| 369 (CAUGACAAUCUCCGCCAGGU; chemistry not given here) [compound 369] | 29.45% | 0.71 | 70.52% | 0.29 |  |  |  |  |
